The text below walks through data of patent publication US20120238767A1, “ANTIOXIDANT INFLAMMATION MODULATORS: NOVEL DERIVATIVES OF OLEANOLIC ACID” (priority 2008, published 2012).

The nature of the series: Aqueous solubility determination (Millipore Multiscreen solubility filter plate, UV/vis). The series is classed as physicochemical. Particulars: kinetic from dmso stock; Universal Aqueous Buffer pH 7.4, 90 minutes at room temperature. As to the method:
Aqueous Solubility Determination. The following procedure was used to obtain the aqueous solubility results summarized in Example 4. Step 1. Determination of optimal UV/vis wavelengths and generation of standard curves for a compound of interest: • (1) For eight standard calibration curves (one plate), prepare 34 mL of 50:50 (v:v) universal buffer:acetonitrile in a 50 mL tube. • (2) Using a multichannel pipet, dispense (in μL) the buffer:acetonitrile in a deep well plate as follows:
• (3) Using a multichannel pipet, dispense DMSO into the same plate as follows:
• (4) Add 10 mM compound in DMSO into the plates as follows:
• (5) Mix columns 1 and 2 by pipetting each up and down 10 times. Mix columns 3 and 4 by pipetting up and down 10 times. Serially dilute as follows (pipet up and down 10 times after each transfer):
• (6) Cover plate with lid and shake (200-300 rpm) at room temperature for 20 minutes. • (7) Mix all wells by pipetting up and down 10 times. • (8) Transfer 120 μL from each well to a UV transparent plate. Cover and shake for 3-5 minutes. Remove any bubbles in the wells using a pipet. • (9) Read from 220 nm to 500 nm at 10 nm increments on a spectrophotometer (e.g., SpectraMax®).
Step 2. Compound Solubility Testing Procedures using the Millipore™ Multiscreen® Solubility Filter Plate. […]
Solubility Protocol: • (a) Add 285 μL of Universal Aqueous Buffer to desired wells of the Millipore™ Multiscreen® Solubility filter plate. • (b) Add 15 μL of 10 mM compound in DMSO to the appropriate wells. […] Remove any bubbles with a pipet. • (i) Measure the absorbance of each well in the plate on the spectrophotometer (UV/vis) at the desired wavelength. For compounds in a plate with different absorbance peaks, set the spectrophotometer to read a spectrum (e.g., from 220 nm to 460 nm). • (j) Identify concentration using measured absorbance for each compound and the predetermined standard curve (see Step 1).

Values after ≈ are worked out from the molar mass of the structure shown.

Molecule `CC1(C)CC[C@]2(C(=O)NCC(F)(F)F)CC[C@]3(C)[C@H](C(=O)C=C4[C@@]5(C)C=C(C#N)C(=O)C(C)(C)[C@@H]5CC[C@]43C)[C@@H]2C1` [Compound 63102, reference compound] registered a solubility at 90 min of 0.06 µM (≈ 0.0344 µg/mL). `CC1(C)CC[C@]2(N)CC[C@]3(C)[C@H](C(=O)C=C4[C@@]5(C)C=C(C#N)C(=O)C(C)(C)[C@@H]5CC[C@]43C)[C@@H]2C1` [Compound 63198] gave a solubility at 90 min of 164 µM (≈ 75.7 µg/mL). `COC(=O)[C@]12CCC(C)(C)C[C@H]1[C@H]1C(=O)C[C@@H]3[C@@]4(C)C=C(C#N)C(=O)C(C)(C)[C@@H]4CC[C@@]3(C)[C@]1(C)CC2` [Compound 63219] registered a solubility at 90 min of 13.6 µM (≈ 6.89 µg/mL).

For orientation: solubility means how much of the substance goes into solution per volume.
